Values of other authors as cited in paper PMC12650809, “Evolving Therapeutic Landscape of ROS1-Positive Non-Small Cell Lung Cancer: An Updated Review” (Current Oncology, 2025).
Like-named read-outs stand apart in the source and are kept apart here.

Legend:
ROS1^L2086F = test system: ROS1^L2086F; design: method as in PMID 38070596; settings: L2086F, ATP-binding pocket
ROS1-positive NSCLC [1] = test system: ROS1-positive NSCLC
wild-type ROS1 = test system: wild-type ROS1; design: method as in PMID 36511802; settings: preclinical studies
ROS1^G2032R mutation = test system: ROS1^G2032R mutation; design: method as in PMID 36511802; settings: preclinical studies
ROS1^G2032R = test system: ROS1^G2032R; design: method as in PMID 38070596; settings: solvent-front substitution
ROS1-positive NSCLC [2] = test system: ROS1-positive NSCLC; design: method as in earlier work; settings: WCLC 2025 Abstract 4540
ROS1-positive NSCLC [3] = test system: ROS1-positive NSCLC; remark: listed apart in the source
[4] = 117 TKI-pretreated patients, WCLC 2025 Abstract 4540
[5] = TKI-naïve patients, n = 35, preliminary, WCLC 2025 Abstract 4540
[6] = TKI-naïve patients, preliminary, WCLC 2025 Abstract 4540
[7] = most common AEs, ref WCLC 2025 Abstract 4540
[8] = grade ≥ 3, ref WCLC 2025 Abstract 4540

CCn1ncc2c1-c1cnc(N)c(c1)O[C@H](C)c1cc(F)ccc1-c1nn(C)nc1C2 [Zidesamtinib, zidesamtinib]
resistance or activity with L2086F (ROS1^L2086F): cross-resistance
12-month DOR rate (ROS1-positive NSCLC [1]; [4]): 78%
ORR (ROS1-positive NSCLC [1]; [4]): 44%
12-month DOR rate (ROS1-positive NSCLC [1]; [5]): 96%
ORR (ROS1-positive NSCLC [1]; [5]): 89%
CNS progression events at data cutoff (ROS1-positive NSCLC [1]; [6]): no CNS progression events
IC-ORR (ROS1-positive NSCLC [1]; [6]): 83%
intracranial complete responses (number) (ROS1-positive NSCLC [1]; [6]): four
constipation (ROS1-positive NSCLC [1]; [7]): 17%
creatine phosphokinase elevation (ROS1-positive NSCLC [1]; [7]): 16%
dyspnea (ROS1-positive NSCLC [1]; [7]): 15%
fatigue (ROS1-positive NSCLC [1]; [7]): 16%
peripheral edema (ROS1-positive NSCLC [1]; [7]): 36%
treatment discontinuations (ROS1-positive NSCLC [1]; most common reason: pneumonia, ref WCLC 2025 Abstract 4540): 2%
dose reductions (ROS1-positive NSCLC [1]; ref WCLC 2025 Abstract 4540): 10%
inhibitory activity (wild-type ROS1): subnanomolar
IC50 (ROS1^G2032R mutation): 7.9 nM
resistance or sensitivity with ROS1^G2032R (ROS1^G2032R): some sensitivity
ORR if G2032R Mutation (%) (ROS1-positive NSCLC [2]; TKI-pretreated patients with G2032R): 83%
IC-ORR (%) (ROS1-positive NSCLC [2]; TKI-pretreated patients): 48%
TKI-Pretreated ORR (%) (ROS1-positive NSCLC [2]; TKI-pretreated patients): 44%
mPFS (Months) (ROS1-positive NSCLC [2]; TKI-pretreated patients): 9.7 Months
Discontinuation for AEs (%) (ROS1-positive NSCLC [3]; WCLC 2025 Abstract 4540): 2%
Notable AEs: constipation (ROS1-positive NSCLC [3]; WCLC 2025 Abstract 4540): 17%
Notable AEs: peripheral edema (ROS1-positive NSCLC [3]; WCLC 2025 Abstract 4540): 36%
Main Grade ≥ 3 AEs: CPK elevation (ROS1-positive NSCLC [3]; [8]): CPK elevation (3%), dyspnea (3%)
Main Grade ≥ 3 AEs: dyspnea (ROS1-positive NSCLC [3]; [8]): CPK elevation (3%), dyspnea (3%)
Notable AEs: CPK elevation (ROS1-positive NSCLC [3]; ref WCLC 2025 Abstract 4540): 16%
Notable AEs: dyspnea (ROS1-positive NSCLC [3]; ref WCLC 2025 Abstract 4540): 15%
Notable AEs: fatigue (ROS1-positive NSCLC [3]; ref WCLC 2025 Abstract 4540): 16%
